Experiments:
[1] = molecular target: human activated kallikrein enzyme (Homo sapiens, UniProt P03952); assay: Plasma kallikrein inhibition, fluorogenic PFR-AMC substrate, 500 pM activated kallikrein format; assay type: biochemical; settings: 500 pM activated kallikrein, 300 uM PFR-AMC, 30 min preincubation, 10 min reaction; read-out: Primary Dose Response Assay: Average EC50
How it was run: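 Enzyme (500 pM) was preincubated with inhibitor for 30 min at room temperature in 20 mM Tris pH 7.5, 1 mM EDTA, 150 mM NaCl, 0.1% PEG-400 and 0.1% Triton X-100. The reaction was started with 300 uM PFR-AMC, run 10 min, and fluorescence read at 460 nm (380 nm excitation). EC50 derived.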

[2] = molecular target: T1, plasma kallikrein (Homo sapiens, UniProt P03952); assay: Neat human plasma assay, FXIIa contact pathway-activated, PFR-AMC substrate; assay type: biochemical; settings: citrated human plasma 78% final, 10 nM human FXIIa, 100 μM PFR-AMC; read-out: Human Plasma Assay: IC90
T1 construct: from tissue
T1 sequence (P03952 391-638 limits assumed): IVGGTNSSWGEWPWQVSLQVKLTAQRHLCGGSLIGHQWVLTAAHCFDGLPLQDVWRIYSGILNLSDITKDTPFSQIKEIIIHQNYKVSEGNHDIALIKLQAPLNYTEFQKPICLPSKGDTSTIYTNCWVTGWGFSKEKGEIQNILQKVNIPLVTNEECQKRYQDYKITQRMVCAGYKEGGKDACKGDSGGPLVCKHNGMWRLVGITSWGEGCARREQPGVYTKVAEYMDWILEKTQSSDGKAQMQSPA
T1 sequence (P03952 20-390 partner limits assumed): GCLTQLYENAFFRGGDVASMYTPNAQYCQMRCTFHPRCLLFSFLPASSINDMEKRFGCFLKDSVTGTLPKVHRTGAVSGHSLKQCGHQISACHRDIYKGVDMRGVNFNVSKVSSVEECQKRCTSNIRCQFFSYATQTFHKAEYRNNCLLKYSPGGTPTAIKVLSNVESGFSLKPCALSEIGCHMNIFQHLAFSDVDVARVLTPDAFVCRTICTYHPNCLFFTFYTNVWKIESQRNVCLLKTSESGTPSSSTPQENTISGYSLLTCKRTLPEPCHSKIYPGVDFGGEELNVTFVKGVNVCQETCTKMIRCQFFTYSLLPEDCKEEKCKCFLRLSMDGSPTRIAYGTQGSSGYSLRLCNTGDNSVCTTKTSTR
How it was run: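 Citrated human plasma (78% final) with compound, contact-activated by 10 nM human FXIIa in pKal buffer pH 7.5, with 100 μM PFR-AMC. Fluorescence (360/480 nm) followed 5 min at room temperature; rates versus concentration fitted by 4-parameter equation for IC50/IC90.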

Sequence of human activated kallikrein enzyme (P03952 391-638 limits assumed): as the sequence (P03952 391-638 limits assumed) above
Sequence of human activated kallikrein enzyme (P03952 20-390 partner limits assumed): as the sequence (P03952 20-390 partner limits assumed) above

Row | Compound | EC50 [1] | IC90 [2]
1 | O=C(O)CCc1cc(C2CC2)cn2cc(CNc3ccnc(NC(=O)[C@H]4C[C@@H]4c4cccc(Cl)c4)c3)nc12 [Example 290, 3-(2-(((2-((1S,2S)-2-(3-chlorophenyl)cyclopropane-1-carboxamido)pyridin-4-yl)amino)methyl)-6-cyclopropylimidazo[1,2-a]pyridin-8-yl)propanoic acid] | < 1 nM | 1500 to 10000 nM
2 | CC(=O)N(C)c1cc(C2CC2)cn2cc(CNc3cc(NC(=O)[C@H]4C[C@@H]4c4cccc(Cl)c4)ncn3)nc12 [Example 274, (1S,2S)-2-(3-chlorophenyl)-N-(6-(((6-cyclopropyl-8-(N-methylacetamido)imidazo[1,2-a]pyridin-2-yl)methyl)amino)pyrimidin-4-yl)cyclopropane-1-carboxamide] | 1 to 10 nM | 1500 to 10000 nM
3 | Cc1ccnc([C@H]2C[C@@H]2C(=O)Nc2cc(N[C@H](C)c3cn4cc(C5CC5)cc(N5CC6(COC6)OC5=O)c4n3)nc(C)n2)n1 [Example 437, (1S,2S)-N-(6-(((R)-1-(6-cyclopropyl-8-(6-oxo-2,5-dioxa-7-azaspiro[3.4]octan-7-yl)imidazo[1,2-a]pyridin-2-yl)ethyl)amino)-2-methylpyrimidin-4-yl)-2-(4-methylpyrimidin-2-yl)cyclopropane-1-carboxamide] | < 1 nM | < 400 nM
4 | COCC(Nc1cc(NC(=O)[C@H]2C[C@@H]2c2nccc(C)n2)ncn1)c1cn2cc(C3CC3)cc(N3CC(=O)N(C)C3=O)c2n1 (stereo partly drawn) [Example 373, (1S,2S)-N-(6-((1-(6-cyclopropyl-8-(3-methyl-2,4-dioxoimidazolidin-1-yl)imidazo[1,2-a]pyridin-2-yl)-2-methoxyethyl)amino)pyrimidin-4-yl)-2-(4-methylpyrimidin-2-yl)cyclopropane-1-carboxamide] | 1 to 10 nM | 400 to 1500 nM
5 | Cc1ccnc([C@H]2C[C@@H]2C(=O)Nc2ncnc(NCc3cn4cc(C5CC5)cc(N5CC(=O)N(C)C5=O)c4n3)c2F)n1 (racemic) [Example 412, rac-(1S*,2S*)-N-(6-(((6-cyclopropyl-8-(3-methyl-2,4-dioxoimidazolidin-1-yl)imidazo[1,2-a]pyridin-2-yl)methyl)amino)-5-fluoropyrimidin-4-yl)-2-(4-methylpyrimidin-2-yl)cyclopropane-1-carboxamide] | 1 to 10 nM | 400 to 1500 nM
6 | CN1CCN(c2cc(C3CC3)cn3cc(CNc4ccnc(NC(=O)[C@H]5C[C@@H]5c5cccc(Cl)c5)n4)nc23)CC1 [Example 88, (1S,2S)-2-(3-chlorophenyl)-N-(4-(((6-cyclopropyl-8-(4-methylpiperazin-1-yl)imidazo[1,2-a]pyridin-2-yl)methyl)amino)pyrimidin-2-yl)cyclopropane-1-carboxamide] | < 1 nM | 400 to 1500 nM

Continued, values first:

Row | EC50 [1] | IC90 [2] | Compound
7 | < 1 nM | < 400 nM | Cc1ccnc([C@H]2C[C@@H]2C(=O)Nc2cc(NCc3cn4cc(C5CC5)cc(N5CC(=O)N(C)C5=O)c4n3)ccn2)n1 (racemic) [Example I-208, rac-(1S*,2S*)-N-(4-(((6-cyclopropyl-8-(3-methyl-2,4-dioxoimidazolidin-1-yl)imidazo[1,2-a]pyridin-2-yl)methyl)amino)pyridin-2-yl)-2-(4-methylpyrimidin-2-yl)cyclopropane-1-carboxamide]
8 | < 1 nM | 400 to 1500 nM | CN1C(=O)CN(c2cc(C3CC3)cn3cc(CNc4ccnc(NC(=O)[C@H]5C[C@@H]5c5cccc(Cl)c5)c4)nc23)C1=O [Example I-209, (1S,2S)-2-(3-chlorophenyl)-N-(4-(((6-cyclopropyl-8-(3-methyl-2,4-dioxoimidazolidin-1-yl)imidazo[1,2-a]pyridin-2-yl)methyl)amino)pyridin-2-yl)cyclopropane-1-carboxamide]
9 | < 1 nM | < 400 nM | O=C(Nc1cc(NCc2cn3cc(C4CC4)cc(C(O)C4CNC4)c3n2)ccn1)[C@H]1C[C@@H]1c1cccc(Cl)c1 (stereo partly drawn) [Example 135, (1S,2S)—N-(4-(((8-(-azetidin-3-yl(hydroxy)methyl)-6-cyclopropylimidazo[1,2-a]pyridin-2-yl)methyl)amino)pyridin-2-yl)-2-(3-chlorophenyl)cyclopropane-1-carboxamide]
